Patent publication US6593342B1, “Pharmaceutical compositions comprising 2-quinolones” (Laboratoire L. Lafon, priority 1998, dated 2003)

What was measured:
[1] = tested on: T-47D; assay: MTT test, T-47D; type: cell-based; settings: Homo sapiens, T47D, 10^−5 M, 72 hours, control = 100%, mean ± SEM, read-out: average optical density (MTT), percentage relative to control
Protocol: (§1) The influence of the compounds of formulae (I) and (Ia) on non-clonogenic cells was evaluated with the aid of the MTT calorimetric test.
(§2) The principle of the MTT test is based on the mitochondrial reduction, by the metabolically active live cells, of the yellow-colored product MTT (3-(4,5-dimethylthiazol-2-yl)-2,5-diphenyltetrazolium bromide) to a blue-colored product, formazan. The amount of formazan thus obtained is directly proportional to the amount of live cells present in the culture well(s). This amount of formazan is measured by spectrophotometry.
(§3) The cell lines are maintained as a monolayer culture at 37° C. in stoppered culture dishes containing MEM 25 MM HEPES (Minimum Essential Medium) base medium. This medium is suited to the growth of a range of various mammalian diploid or primary cells. This medium is then supplemented with:
(§4) an amount of 5% of FCS (Foetal Calf Serum) decomplemented at 56° C. for 1 hour,
(§5) 0.6 mg/ml of L-glutamine,
(§6) 200 μg/ml of streptomycin,
(§7) The 12 human cancer cell lines which were used were obtained from the American Type Culture Collection (ATCC, Rockville, Md., USA). These 12 cell lines are:
(§8) T-47D (code ATCC: HTB-133) and MCF7 (code ATCC: HTB-22) which are two breast cancers,
(§9) Experimentally: 100 μl of a cell suspension containing 20 000 to 50 000 (depending on the cell type used) cells/ml of culture medium are inoculated in 96-well flat-bottomed multi-well plates and are incubated at 37° C., under an atmosphere comprising 5% CO2 and 70% humidity. After incubation for 24 hours, the culture medium is replaced with 100 μl of fresh medium containing either the various test compounds at concentrations ranging from 10^−5 to 10^−10 M or the solvent used to dissolve the test products (control condition). After incubation for 72 hours under the above conditions, the culture medium is replaced with 100 μl of a yellowish solution of MTT dissolved at a rate of 1 mg/ml in RPMI 1640. The microplates are reincubated for 3 hours at 37° C. and are then centrifuged for 10 minutes at 400×g. The yellowish solution of MTT is removed and the blue formazan crystals formed in the cell are dissolved in 100 μl of DMSO. The microplates are then shaken for 5 minutes. The intensity of the resulting blue coloration, and thus of the conversion of the yellow product MTT into blue formazan by the cells that are still alive at the end of the experiment, is quantified by spectrophotometry using a Dynatech Immunoassay System machine at wavelengths of 570 nm and 630 nm corresponding, respectively, to the maximum absorption wavelengths of formazan and to the background noise. Software incorporated in the spectrophotometer calculates the average optical density values and the standard deviation (SD) and standard error of mean (SEM) values.
(§10) By way of example, the results of the average optical density, expressed as a percentage relative to the average optical density measured under the control condition (set equal to 100%), obtained at a concentration of 10^−5 M on the 12 abovementioned tumor cell lines are given in Table II.

[2] = Determination of the maximum tolerated dose (MTD); settings: mouse, in vivo, ip; B6D2F1/Jico mice; single intraperitoneal administration, 2.5 to 160 mg/kg; survival over 14 days
Protocol: 3.—Determination of the Maximum Tolerated Dose (MTD):
The evaluation of the maximum tolerated dose was carried out on 4- to 6-week-old B6D2F1/Jico mice. The compounds were administered intraperitoneally at increasing doses graduating from 2.5 to 160 mg/kg. The value of the MTD (expressed in mg/kg) is determined from the observation of the survival rate of the animals over a 14-day period after a single administration of the product under consideration. The weight change of the animals is also monitored during this period. When the value of the MTD is greater than 160 mg/kg, the MTD value is likened to 160 mg/kg by default.
The results of the estimation of the maximum tolerated dose (MTD) are collated in the following table: […]

[3] = tested on: U-373MG; assay: MTT test, U-373MG; type: cell-based; settings: Homo sapiens, U373 MG, 10^−5 M, 72 hours, control = 100%, mean ± SEM, read-out: average optical density (MTT), percentage relative to control
Protocol: as §1, §2, §3, §4, §5, §6, §7
(§11) U-373MG (code ATCC: HTB-17) and U-87MG (code ATCC: HTB-14) which are two glioblastomas,
as §9, §10

[4] = tested on: T24; assay: MTT test, T24; type: cell-based; settings: Homo sapiens, T-24, 10^−5 M, 72 hours, control = 100%, mean ± SEM, read-out: average optical density (MTT), percentage relative to control
Protocol: as §1, §2, §3, §4, §5, §6, §7
(§12) J82 (code ATCC: HTB-1) and T24 (code ATCC: HTB-4) which are two bladder cancers,
as §9, §10

[5] = tested on: A-427; assay: MTT test, A-427; type: cell-based; settings: Homo sapiens, 10^−5 M, 72 hours, control = 100%, mean ± SEM, read-out: average optical density (MTT), percentage relative to control
Protocol: as §1, §2, §3, §4, §5, §6, §7
(§13) A549 (code ATCC: CCL-185) and A-427 (code ATCC: HTB-53) which are two non-small-cell lung cancers,
as §9, §10

[6] = tested on: SW1088; assay: MTT test, SW1088; type: cell-based; settings: Homo sapiens, 10^−5 M, 72 hours, control = 100%, mean ± SEM, read-out: average optical density (MTT), percentage relative to control
Protocol: as §1, §2, §3, §4, §5, §6, §7
SW1088 (code ATCC: HTB-12) which is an astrocytoma,
as §9, §10

[7] = tested on: MCF7; assay: MTT test, MCF7; type: cell-based; settings: Homo sapiens, 10^−5 M, 72 hours, control = 100%, mean ± SEM, read-out: average optical density (MTT), percentage relative to control
Protocol: as §1, §2, §3, §4, §5, §6, §7, §8, §9, §10

[8] = tested on: J82; assay: MTT test, J82; type: cell-based; settings: Homo sapiens, 10^−5 M, 72 hours, control = 100%, mean ± SEM, read-out: average optical density (MTT), percentage relative to control
Protocol: as §1, §2, §3, §4, §5, §6, §7, §12, §9, §10

[9] = tested on: LoVo; assay: MTT test, LoVo; type: cell-based; settings: Homo sapiens, 10^−5 M, 72 hours, control = 100%, mean ± SEM, read-out: average optical density (MTT), percentage relative to control
Protocol: as §1, §2, §3, §4, §5, §6, §7
(§14) HTC-15 (code ATCC: CCL-225) and LoVo (code ATCC: CCL-229) which are two colorectal cancers,
as §9, §10

[10] = tested on: PC-3; assay: MTT test, PC-3; type: cell-based; settings: Homo sapiens, 10^−5 M, 72 hours, control = 100%, mean ± SEM, read-out: average optical density (MTT), percentage relative to control
Protocol: as §1, §2, §3, §4, §5, §6, §7
PC-3 (code ATCC: CRL-1435) which is a prostate cancer.
as §9, §10

[11] = tested on: U-87MG; assay: MTT test, U-87MG; type: cell-based; settings: Homo sapiens, 10^−5 M, 72 hours, control = 100%, mean ± SEM, read-out: average optical density (MTT), percentage relative to control
Protocol: as §1, §2, §3, §4, §5, §6, §7, §11, §9, §10

[12] = tested on: HCT-15; assay: MTT test, HCT-15; type: cell-based; settings: Homo sapiens, 10^−5 M, 72 hours, control = 100%, mean ± SEM, read-out: average optical density (MTT), percentage relative to control
Protocol: as §1, §2, §3, §4, §5, §6, §7, §14, §9, §10

[13] = tested on: A549; assay: MTT test, A549; type: cell-based; settings: Homo sapiens, 10^−5 M, 72 hours, control = 100%, mean ± SEM, read-out: average optical density (MTT), percentage relative to control
Protocol: as §1, §2, §3, §4, §5, §6, §7, §13, §9, §10

| SMILES | viability at 10 µM [1] [%] | MTD at 14 day [2] [mg/kg] | viability at 10 µM [3] [%] | viability at 10 µM [4] [%] | viability at 10 µM [5] [%] | viability at 10 µM [6] [%] | viability at 10 µM [7] [%] | viability at 10 µM [8] [%] | viability at 10 µM [9] [%] | viability at 10 µM [10] [%] | viability at 10 µM [11] [%] | viability at 10 µM [12] [%] | viability at 10 µM [13] [%] | melting point [°C] |
| --- | --- | --- | --- | --- | --- | --- | --- | --- | --- | --- | --- | --- | --- | --- |
| COc1ccc(-c2cc3c(OC)cc(OC)cc3n(CCC(=O)O)c2=O)cc1 [CRL8319, 3-[5,7-Dimethoxy-3-(4-methoxyphenyl)-2-oxo-1,2-dihydro-1-quinolinyl]propanoic Acid] | 104 ± 2.5 | > 160 | 102 ± 1.5 | 89.6 ± 2.1 | 79.1 ± 2.5 | 89.8 ± 2.7 | 102 ± 2 | 80.9 ± 1 | 79.7 ± 2.7 | 90.7 ± 3.6 | 115 ± 2.9 | 96.7 ± 1.6 | 97.3 ± 1.2 |  |
| Cn1c(=O)c(-c2ccc(O)cc2)cc2c(O)cc(O)cc21 [CRL8321, 5,7-Dihydroxy-3-(4-hydroxyphenyl)-1-methyl-1,2-dihydro-2-quinolinone] | 91.5 ± 1.2 | > 160 | 97.1 ± 2.4 | 103 ± 1.7 | 107 ± 1.4 | 97.2 ± 1.8 | 96.6 ± 0.9 | 88.6 ± 0.9 | 108 ± 1.1 | 102 ± 3.1 | 96.5 ± 1.2 | 118 ± 1.6 | 99.4 ± 1.3 |  |
| COc1cc(OC)c2cc(-c3ccccc3)c(O)nc2c1 [CRL8330, 5,7-Dimethoxy-3-phenyl-1,2-dihydro-2-quinolinone] | 77.6 ± 3 | > 160 | 75.5 ± 3.7 | 57.4 ± 2.3 | 59.8 ± 1 | 73.3 ± 1.8 | 87.2 ± 3 | 70.5 ± 2.4 | 59.9 ± 4.2 | 48.5 ± 2.1 | 86.6 ± 0.7 | 94.7 ± 2.1 | 76.3 ± 2.4 |  |
| COc1ccc(-c2cc3c(OC)ccc(OC)c3nc2O)cc1 [CRL8336, 5,8-Dimethoxy-3-(4-methoxyphenyl)-1,2-dihydro-2-quinolinone] | 96.2 ± 2.9 | > 160 | 82.3 ± 1.6 | 88.2 ± 1.4 | 87.9 ± 3.1 | 101 ± 4.3 | 73.9 ± 0.7 | 90.9 ± 0.9 | 92.6 ± 3.4 | 91.7 ± 1.5 | 82.3 ± 1.8 | 93.1 ± 3.2 | 114 ± 1.9 |  |
| COc1cccc2cc(-c3ccccc3)c(O)nc12 [CRL8339, 8-Methoxy-3-phenyl-1,2-dihydro-2-quinolinone] | 81 ± 2.8 | > 160 | 73.6 ± 1.8 | 87.4 ± 2 | 52.3 ± 2.3 | 87.1 ± 2.6 | 82.7 ± 3.5 | 83.7 ± 0.6 | 74.4 ± 1.8 | 84.3 ± 1.8 | 69.1 ± 2.1 | 65.5 ± 2.2 | 49.6 ± 2.2 |  |
| COc1ccc(-c2cc3c(OC)cc(OC)cc3nc2OC)cc1 [Compound 7a, 2,5,7-Trimethoxy-3-(4-methoxyphenyl)quinoline] |  |  |  |  |  |  |  |  |  |  |  |  |  | 106 to 107 |
| CCOC(=O)COc1nc2cc(OC)cc(OC)c2cc1-c1ccc(OC)cc1 [Compound 11a, Ethyl 2-([5,7-Dimethoxy-3-(4-methoxyphenyl)-2-quinolinyl]oxy)acetate] |  |  |  |  |  |  |  |  |  |  |  |  |  | 95 to 96 |
| COc1ccc(-c2cc3c(OC)cc(OC)cc3nc2OCC(=O)OCc2ccccc2)cc1 [Compound 13a, Benzyl 2-([5,7-Dimethoxy-3-(4-methoxyphenyl)-2-quinolinyl]oxy)acetate] |  |  |  |  |  |  |  |  |  |  |  |  |  | 114 to 115 |
| CCN(CC)C(=O)COc1nc2cc(OC)cc(OC)c2cc1-c1ccc(OC)cc1 [Compound 18a, N,N-Diethyl-2-([5,7-dimethoxy-3-(4-methoxyphenyl)-2-quinolinyl]oxy)acetamide] |  |  |  |  |  |  |  |  |  |  |  |  |  | 146 to 147 |
| COc1ccc(-c2cc3c(OC)cc(OC)cc3nc2OCC#N)cc1 [Compound 19a, 2-([5,7-Dimethoxy-3-(4-methoxyphenyl)-2-quinolinyl]oxy)acetonitrile] |  |  |  |  |  |  |  |  |  |  |  |  |  | 149 to 150 |
| COc1ccc(-c2cc3c(OC)cc(OC)cc3nc2OCCCN(C)C)cc1 [Compound 22a] |  |  |  |  |  |  |  |  |  |  |  |  |  | 54 to 55 |
| COc1ccc(-c2cc3c(OC)cc(OC)cc3nc2OCCN(C)C)cc1 [Compound 23a, N,N-Dimethyl-2-[5,7-dimethoxy-3-(4-methoxyphenyl)-2-quinolyl]oxy-1-ethanamine] |  |  |  |  |  |  |  |  |  |  |  |  |  | 49 to 50 |
| COc1ccc2[nH]c(=O)c(-c3ccccc3)cc2c1 [Compound 44, 6-Methoxy-3-phenyl-1,2-dihydro-2-quinolinone] |  |  |  |  |  |  |  |  |  |  |  |  |  | 243 to 244 |
| COc1cc(OC)c2cc(-c3ccc(OS(=O)(=O)C(F)(F)F)cc3)c(=O)n(C)c2c1 [Compound 45] |  |  |  |  |  |  |  |  |  |  |  |  |  | 144 to 145 |
| Cc1ccc2[nH]c(=O)c(-c3ccccc3)cc2c1 [Compound 48, 6-Methyl-3-phenyl-1,2-dihydro-2-quinolinone] |  |  |  |  |  |  |  |  |  |  |  |  |  | 212 to 213 |
